How the values were obtained:
HDAC6 = HDAC6 (Homo sapiens (Human), UniProt Q9UBN7); assay: HDAC6 fluorescence analysis, inhibition of HDAC6 activity; format: biochemical; conditions: HDAC6 0.3 nM solution, substrate 15 μM, fluorescence readout; read-out: IC50, inhibitory effect on HDAC6
Procedure: HDAC6 fluorescence analysis method was used to detect the inhibitory effect of the compounds on the activity of HDAC6. The specific operation is as follows:
Prepare a 10 mM stock solution of a compound with DMSO. Take 10 μl of stock solution and dilute with 90 μl DMSO to become a 1 mM working solution. […] Add 3 μl of each concentration to 197 μl reaction buffer (20 mM Hepes pH 8.0, 137 mM NaCl, 2.7 mM KCl, 1 mM MgCl2, 0.05% BSA, 0.5 mM TCEP), mix well and add 10 μl to a 384-well plate. In the final reaction system, the concentrations of the compound were 10 μM to 0.51 nM. Duplicate, and add 10 μl 3XHDAC solution (BPS, Cat. 50006, 0.3 nM) to each well, followed by incubating at 23° C. for 20 minutes. Then, add 3× substrate solution (Anaspec, Cat. 61855, 15 μM), centrifuge to mix, and incubate at 23° C. for 90 minutes. Add 30 μl trypsin/SAHA mixture (20 mM Hepes pH 8.0, 100 mM NaCl, 10 mM SAHA, 0.01 mg/ml trypsin), incubate at 23° C. for 60 minutes to terminate the reaction. Finally, read fluorescence data by Envision (390 nm excitation, 460 nm emission). […] Finally, analyze the data by XLfit5 software and calculate the IC50 value of the compound. Vorinostat (SAHA) was a positive reference compound.

VEGFR2 (KDR) = VEGFR2 (KDR) (Homo sapiens (Human), UniProt P35968); assay: VEGFR2 (KDR) mobility shift assay; format: biochemical; conditions: VEGFR2 0.5 nM, ATP 95 μM, read-out: IC50, inhibitory effect on kinase VEGFR2
VEGFR2 (KDR), sequence (P35968 790-1356): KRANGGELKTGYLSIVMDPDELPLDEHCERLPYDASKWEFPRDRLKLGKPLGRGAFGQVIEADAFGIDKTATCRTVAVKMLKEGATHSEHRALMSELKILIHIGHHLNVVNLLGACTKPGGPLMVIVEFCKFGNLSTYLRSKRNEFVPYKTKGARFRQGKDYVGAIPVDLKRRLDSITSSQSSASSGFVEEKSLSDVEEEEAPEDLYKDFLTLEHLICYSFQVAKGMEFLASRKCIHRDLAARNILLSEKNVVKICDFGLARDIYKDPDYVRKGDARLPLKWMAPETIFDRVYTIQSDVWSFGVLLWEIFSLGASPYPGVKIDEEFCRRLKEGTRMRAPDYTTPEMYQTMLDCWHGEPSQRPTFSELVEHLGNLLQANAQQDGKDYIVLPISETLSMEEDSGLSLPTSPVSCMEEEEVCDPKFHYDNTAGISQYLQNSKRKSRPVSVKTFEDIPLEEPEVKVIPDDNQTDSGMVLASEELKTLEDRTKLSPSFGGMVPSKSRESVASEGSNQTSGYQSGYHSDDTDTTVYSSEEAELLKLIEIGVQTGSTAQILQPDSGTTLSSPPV
Procedure: Detect compounds on VEGFR2 (KDR) by mobility shift assay. The initial test concentration of a compound was 1000 nM, 3 times dilution, 10 concentrations, and detection in duplicate. Nintedanib (Selleckchem, Cat. S1010) was used as the positive control compound. The operation method was briefly described as follows: kinase VEGFR2 (Carna, Cat. 08-191) at the final concentration of 0.5 nM and the test compound were mixed in the Optiplate-384F well plate and incubated for 10 minutes at room temperature. Then, ATP at a final concentration of 95 μM and 3 μM Kinase substrate 22 (Gill Biochemical (glbiochem), Cat. 112393) were added. After mixing, react at room temperature for 30 minutes. Add stop detection solution to terminate the reaction and read the conversion rate with Caliper EZ ReaderlI.
Wherein, Conversion %_sample refers to the conversion rate reading of the sample; Conversion %_min: the average value of the negative control wells, which represents the conversion rate readings of the wells without enzyme activity; Conversion %_max: the average value of the positive control wells, represents the conversion rate readings of the wells without compound inhibition.
Fitting the dose-response curve: Take the log of the concentration as the X-axis, and the percentage of inhibition rate as the Y-axis. The dose response curve was fitted by the analysis software GraphPad Prism 5 with log(inhibitor) vs. response—Variable slope to obtain the inhibitory activity (IC50) of each compound.

HDAC6, sequence (Q9UBN7 whole entry): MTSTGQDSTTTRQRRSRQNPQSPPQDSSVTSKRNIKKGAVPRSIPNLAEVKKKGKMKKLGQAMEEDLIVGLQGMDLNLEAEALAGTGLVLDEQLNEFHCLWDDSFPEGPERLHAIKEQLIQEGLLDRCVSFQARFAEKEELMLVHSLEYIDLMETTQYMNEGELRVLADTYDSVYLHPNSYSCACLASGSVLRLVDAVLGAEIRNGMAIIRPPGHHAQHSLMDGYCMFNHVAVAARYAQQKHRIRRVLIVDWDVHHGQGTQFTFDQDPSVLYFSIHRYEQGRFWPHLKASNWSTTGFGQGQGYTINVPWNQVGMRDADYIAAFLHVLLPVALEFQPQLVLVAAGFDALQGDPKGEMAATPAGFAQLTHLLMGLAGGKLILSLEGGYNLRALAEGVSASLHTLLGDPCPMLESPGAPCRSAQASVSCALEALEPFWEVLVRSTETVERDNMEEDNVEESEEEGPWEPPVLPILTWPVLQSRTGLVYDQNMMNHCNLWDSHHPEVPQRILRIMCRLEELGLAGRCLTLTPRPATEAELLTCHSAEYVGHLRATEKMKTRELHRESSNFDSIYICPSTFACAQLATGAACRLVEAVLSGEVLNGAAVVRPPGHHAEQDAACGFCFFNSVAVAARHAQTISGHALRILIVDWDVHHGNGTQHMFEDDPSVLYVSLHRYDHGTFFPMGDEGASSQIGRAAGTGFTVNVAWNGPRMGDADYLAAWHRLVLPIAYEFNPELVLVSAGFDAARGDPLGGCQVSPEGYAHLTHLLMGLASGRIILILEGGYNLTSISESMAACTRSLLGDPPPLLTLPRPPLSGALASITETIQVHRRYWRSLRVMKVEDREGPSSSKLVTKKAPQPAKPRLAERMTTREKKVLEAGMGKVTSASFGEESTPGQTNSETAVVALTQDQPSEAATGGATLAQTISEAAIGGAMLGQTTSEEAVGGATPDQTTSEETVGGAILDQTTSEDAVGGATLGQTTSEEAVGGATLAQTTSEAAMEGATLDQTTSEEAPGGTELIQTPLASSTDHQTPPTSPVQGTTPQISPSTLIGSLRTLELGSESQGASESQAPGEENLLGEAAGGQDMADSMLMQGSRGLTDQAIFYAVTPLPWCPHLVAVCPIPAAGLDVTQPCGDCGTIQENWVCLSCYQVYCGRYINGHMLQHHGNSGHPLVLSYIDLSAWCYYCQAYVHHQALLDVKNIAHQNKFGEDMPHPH

| Structure (SMILES) | IC50 (HDAC6) [nM] | IC50 (VEGFR2 (KDR)) [nM] |
| --- | --- | --- |
| COc1cc2c(Oc3ccc(NC(=O)C4(C(=O)Nc5ccc(F)cc5)CC4)cc3F)ccnc2cc1OCCCCCCNC(=O)CS [Example 64] | 28.8 | 51 |
| COc1cc2c(Oc3ccc(NC(=O)C4(C(=O)Nc5ccc(F)cc5)CC4)cc3F)ccnc2cc1OCCCCNC(=O)CS [Example 62] | 16.3 | 17 |
| CC(=O)SCC(=O)NCCCCCOc1cc2nccc(Oc3ccc(NC(=O)NC4CC4)c(Cl)c3)c2cc1C(N)=O [Example 69, S-(2-((5-((6-carbamoyl-4-(3-chloro-4-(3-cyclopropylurea)phenoxy)quinolin-7-yl)oxy)pentyl)amino)-2-oxo-ethyl)thioacetate] | 8.94 | 0.96 |
| CC(=O)SCC(=O)NCCCCCOc1cc2nccc(Oc3ccc(NC(=O)C4(C(=O)Nc5ccc(F)cc5)CC4)cc3F)c2cc1C(N)=O [Example 71, S-(2-((5-((6-carbamoyl-4-(2-fluoro-4-(1-((4-fluorophenyl)carbamoyl)cyclopropane-1-methylamido)phenoxy)quinolin-7-yl)oxy)pentyl)amino)-2-oxo-ethyl)thioacetate] | 27 | 4.6 |
